The subject of this assay is rifampicin and isoniazid-resistant MTB strain (MDR-MTB). The experiment in a line: microbe, parasite or virus in culture. It is filed as cell-based. The note with it: Mycobacterium tuberculosis, 192 h, read-out: MIC (μg/mL) MDR-MTB.

The record followed here is patent publication US11530217B1, “Antitubercular compounds” (priority 2022, dated 2022).

The structures appear in SMILES notation. Converted amounts (≈) assume the structure as drawn.

Turning to `COC(=O)c1c(C(=O)OC)c2c(C)cc(C)cn2c1C(=O)c1ccc(OC)cc1` [Compound 5b, Dimethyl 3-(4-methoxybenzoyl)-6,8-dimethylindolizine-1,2-dicarboxylate], the MIC came to 64 µg/mL (≈ 162 µM).
In the case of `CCOC(=O)c1cc(C(=O)c2ccc(Cl)cc2)n2cc(C)cc(C)c12` [Compound 5c, Ethyl 3-(4-chlorobenzoyl)-6,8-dimethylindolizine-1-carboxylate], the MIC was 1 µg/mL (≈ 2.81 µM).
For the compound `COC(=O)c1c(C(=O)OC)c2c(C)cc(C)cn2c1C(=O)c1ccc(Cl)cc1` [Compound 5d, Dimethyl 3-(4-chlorobenzoyl)-6,8-dimethylindolizine-1,2-dicarboxylate], the MIC stood at 64 µg/mL (≈ 160 µM).
On to `CCOC(=O)c1cc(C(=O)c2ccc(F)cc2)n2cc(C)cc(C)c12` [Compound 5g, Ethyl 3-(4-fluorobenzoyl)-6,8-dimethylindolizine-1-carboxylate], for which the MIC turned out to be 4 µg/mL (≈ 11.8 µM).
With `CCOC(=O)c1cc(C(=O)c2ccccc2[N+](=O)[O-])n2cc(C)cc(C)c12` [Compound 5h, Ethyl 6,8-dimethyl-3-(2-nitrobenzoyl)indolizine-1-carboxylate], the MIC was 4 µg/mL (≈ 10.9 µM).
For `CCOC(=O)c1cc(C(=O)c2cc(C(F)(F)F)cc(C(F)(F)F)c2)n2cc(C)cc(C)c12` [Compound 5i, Ethyl 3-(3,5-bis(trifluoromethyl)benzoyl)-6,8-dimethylindolizine-1-carboxylate], the MIC came to 16 µg/mL (≈ 35 µM).
To `CCOC(=O)c1cc(C(=O)c2ccc(C#N)cc2)n2cc(C)cc(C)c12` [Compound 5j, Ethyl 3-(4-cyanobenzoyl)-6,8-dimethylindolizine-1-carboxylate] belongs 4 µg/mL (≈ 11.5 µM); to `CCOC(=O)c1cc(C(=O)c2ccc(C)cc2)n2cc(C)cc(C)c12` [Compound 5k, Ethyl 6,8-dimethyl-3-(4-methylbenzoyl)indolizine-1-carboxylate], 4 µg/mL (≈ 11.9 µM).
To `COC(=O)c1c(C(=O)OC)c2c(C)cc(C)cn2c1C(=O)c1ccc(C#N)cc1` [Compound 5l, Dimethyl 3-(4-cyanobenzoyl)-6,8-dimethylindolizine-1,2-dicarboxylate] belongs 8 µg/mL (≈ 20.5 µM).
Then `COC(=O)c1c(C(=O)OC)c2c(C)cc(C)cn2c1C(=O)c1ccc(C)cc1` [Compound 5m, Dimethyl 6,8-dimethyl-3-(4-methylbenzoyl)indolizine-1,2-dicarboxylate], with 1 µg/mL (≈ 2.64 µM).
